Assay results from PubChem BioAssay AID2060619 (Molecular Pharmacology Branch, DTP, NCI, 2025).

Tested on: 323965-272-R-J2-PDC complex spheroid viability
Assay: Anticancer human tumor 323965-272-R-J2-PDC patient-derived pancreatic carcinoma cell line growth inhibition [CLK]
Conditions: for IC50: curve of first compound; for viability, T/C: stronger effect = lower value
Procedure, shortened: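 Patient-derived tumor cells grown as complex spheroids with HUVEC endothelial cells and mesenchymal stem cells, treated with drug combinations. Concentrations descend in half-log steps from near clinical Cmax, or from 10 microM if Cmax unknown.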

[1] = second compound 0.0316 µM, first compound 0.000316 µM
[2] = second compound 0.0316 µM, first compound 0.001 µM
[3] = second compound 0.0316 µM, first compound 0.00316 µM
[4] = second compound 0.0316 µM, first compound 0.01 µM
[5] = second compound 0.0316 µM, first compound 0.0316 µM
[6] = second compound 0.0316 µM, first compound 0.1 µM
[7] = second compound 0.1 µM, first compound 0.000316 µM
[8] = second compound 0.1 µM, first compound 0.001 µM
[9] = second compound 0.1 µM, first compound 0.00316 µM
[10] = second compound 0.1 µM, first compound 0.01 µM
[11] = second compound 0.1 µM, first compound 0.0316 µM
[12] = second compound 0.1 µM, first compound 0.1 µM
[13] = second compound 0.316 µM, first compound 0.000316 µM
[14] = second compound 0.316 µM, first compound 0.001 µM
[15] = second compound 0.316 µM, first compound 0.00316 µM
[16] = second compound 0.316 µM, first compound 0.01 µM
[17] = second compound 0.316 µM, first compound 0.0316 µM
[18] = second compound 0.316 µM, first compound 0.1 µM
[19] = second compound 1 µM, first compound 0.000316 µM
[20] = second compound 1 µM, first compound 0.001 µM
[21] = second compound 1 µM, first compound 0.00316 µM
[22] = second compound 1 µM, first compound 0.01 µM
[23] = second compound 1 µM, first compound 0.0316 µM
[24] = second compound 1 µM, first compound 0.1 µM
[25] = second compound 3.16 µM, first compound 0.000316 µM
[26] = second compound 3.16 µM, first compound 0.001 µM
[27] = second compound 3.16 µM, first compound 0.00316 µM
[28] = second compound 3.16 µM, first compound 0.01 µM
[29] = second compound 3.16 µM, first compound 0.0316 µM
[30] = second compound 3.16 µM, first compound 0.1 µM
[31] = second compound 10 µM, first compound 0.000316 µM
[32] = second compound 10 µM, first compound 0.001 µM
[33] = second compound 10 µM, first compound 0.00316 µM
[34] = second compound 10 µM, first compound 0.01 µM
[35] = second compound 10 µM, first compound 0.0316 µM
[36] = second compound 10 µM, first compound 0.1 µM
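Further: spheroids exposed to agents for seven days before readout.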
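Wherever viability, T/C is given: percent of DMSO vehicle control wells so 100% = untreated growth.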

Question: Which results are given for `Cn1ncnc1[C@H]1c2n[nH]c(=O)c3cc(F)cc(c23)N[C@@H]1c1ccc(F)cc1` + CN1CCN(c2cc(C(=O)Nc3cc4cc(-c5cnn(C)c5)ccc4cn3)ccn2)CC1?
Answer: IC50 (second compound 0.0316 µM): > 100 nM; IC50 (second compound 0.1 µM): > 100 nM; IC50 (second compound 0.316 µM): < 0.316 nM; IC50 (second compound 1 µM): < 0.316 nM; IC50 (second compound 3.16 µM): < 0.316 nM; IC50 (second compound 10 µM): < 0.316 nM; viability, T/C [1]: 96.1%; viability, T/C [2]: 96%; viability, T/C [3]: 90%; viability, T/C [4]: 93.3%; viability, T/C [5]: 97%; viability, T/C [6]: 68.3%; viability, T/C [7]: 67.6%; viability, T/C [8]: 65.7%; viability, T/C [9]: 61.6%; viability, T/C [10]: 74%; viability, T/C [11]: 61.1%; viability, T/C [12]: 46.1%; viability, T/C [13]: 23.8%; viability, T/C [14]: 26.9%; viability, T/C [15]: 23%; viability, T/C [16]: 27.9%; viability, T/C [17]: 24.6%; viability, T/C [18]: 21.8%; viability, T/C [19]: 2.64%; viability, T/C [20]: 3.21%; viability, T/C [21]: 3.5%; viability, T/C [22]: 2.88%; viability, T/C [23]: 5.47%; viability, T/C [24]: 3.21%; viability, T/C [25]: 4.62%; viability, T/C [26]: 3.78%; viability, T/C [27]: 5.87%; viability, T/C [28]: 3.77%; viability, T/C [29]: 4.01%; viability, T/C [30]: 4.38%; viability, T/C [31]: 4.34%; viability, T/C [32]: 4.75%; viability, T/C [33]: 6.41%; viability, T/C [34]: 4.13%; viability, T/C [35]: 4.28%; viability, T/C [36]: 4.85%

Question: With `Cn1ncnc1[C@H]1c2n[nH]c(=O)c3cc(F)cc(c23)N[C@@H]1c1ccc(F)cc1` + CNC(=O)c1ccc(Nc2nc(OC3CCCC3)c3c(-c4ccc5nc(C)oc5c4)c[nH]c3n2)c(OC)c1 as the compound, how does the IC50 (second compound 0.0316 µM) read?
Answer: > 100 nM

Question: And the IC50 (second compound 0.1 µM)?
Answer: > 100 nM

Question: What about the IC50 (second compound 0.316 µM) of the same compound?
Answer: > 100 nM

Question: And the IC50 (second compound 1 µM)?
Answer: < 0.316 nM

Question: And the IC50 (second compound 3.16 µM)?
Answer: < 0.316 nM

Question: And the IC50 (second compound 10 µM)?
Answer: < 0.316 nM

Question: And the viability, T/C [1]?
Answer: 126%

Question: And the viability, T/C [2]?
Answer: 118%

Question: What about the viability, T/C [3] of the same compound?
Answer: 104%

Question: What about the viability, T/C [4] of the same compound?
Answer: 110%

Question: What about the viability, T/C [5] of the same compound?
Answer: 86.8%

Question: And the viability, T/C [6]?
Answer: 97.1%

Question: And the viability, T/C [7]?
Answer: 86.2%

Question: What about the viability, T/C [8] of the same compound?
Answer: 75.3%

Question: And the viability, T/C [9]?
Answer: 78.9%

Question: And the viability, T/C [10]?
Answer: 85.3%

Question: What about the viability, T/C [11] of the same compound?
Answer: 76.1%

Question: What about the viability, T/C [12] of the same compound?
Answer: 66%

Question: And the viability, T/C [13]?
Answer: 69.6%

Question: And the viability, T/C [14]?
Answer: 66.7%

Question: What about the viability, T/C [15] of the same compound?
Answer: 55.5%

Question: What about the viability, T/C [16] of the same compound?
Answer: 67.8%

Question: And the viability, T/C [17]?
Answer: 70%

Question: What about the viability, T/C [18] of the same compound?
Answer: 51.6%

Question: And the viability, T/C [19]?
Answer: 41.3%

Question: What about the viability, T/C [20] of the same compound?
Answer: 45.5%

Question: What about the viability, T/C [21] of the same compound?
Answer: 48.5%

Question: And the viability, T/C [22]?
Answer: 38.3%

Question: What about the viability, T/C [23] of the same compound?
Answer: 52%

Question: What about the viability, T/C [24] of the same compound?
Answer: 43.4%

Question: And the viability, T/C [25]?
Answer: 36.7%

Question: What about the viability, T/C [26] of the same compound?
Answer: 47.2%

Question: What about the viability, T/C [27] of the same compound?
Answer: 42.4%

Question: And the viability, T/C [28]?
Answer: 43.9%

Question: And the viability, T/C [29]?
Answer: 51.5%

Question: And the viability, T/C [30]?
Answer: 43.3%

Question: And the viability, T/C [31]?
Answer: 37.1%

Question: And the viability, T/C [32]?
Answer: 36.6%

Question: And the viability, T/C [33]?
Answer: 42.6%

Question: What about the viability, T/C [34] of the same compound?
Answer: 45.7%

Question: What about the viability, T/C [35] of the same compound?
Answer: 43.1%

Question: And the viability, T/C [36]?
Answer: 43.1%

Question: How did the IC50 (second compound 0.0316 µM) turn out when `C=CC(=O)Nc1cc(Nc2nccc(-c3cn(C)c4ccccc34)n2)c(OC)cc1N(C)CCN(C)C` + CNC(=O)c1ccc(Nc2nc(OC3CCCC3)c3c(-c4ccc5nc(C)oc5c4)c[nH]c3n2)c(OC)c1 was run?
Answer: > 300 nM

Question: What about the IC50 (second compound 0.1 µM) of the same compound?
Answer: 171 nM

Question: And the IC50 (second compound 0.316 µM)?
Answer: 10.9 nM

Question: And the IC50 (second compound 1 µM)?
Answer: < 0.949 nM

Question: What about the IC50 (second compound 3.16 µM) of the same compound?
Answer: < 0.949 nM

Question: And the IC50 (second compound 10 µM)?
Answer: < 0.949 nM

Question: What about the viability, T/C (second compound 0.0316 µM, first compound 0.000949 µM) of the same compound?
Answer: 101%

Question: And the viability, T/C (second compound 0.0316 µM, first compound 0.003 µM)?
Answer: 110%

Question: And the viability, T/C (second compound 0.0316 µM, first compound 0.00949 µM)?
Answer: 86%

Question: What about the viability, T/C (second compound 0.0316 µM, first compound 0.03 µM) of the same compound?
Answer: 85.1%

Question: What about the viability, T/C (second compound 0.0316 µM, first compound 0.0949 µM) of the same compound?
Answer: 81.9%

Question: What about the viability, T/C (second compound 0.0316 µM, first compound 0.3 µM) of the same compound?
Answer: 83.5%

Question: What about the viability, T/C (second compound 0.1 µM, first compound 0.000949 µM) of the same compound?
Answer: 70.8%

Question: What about the viability, T/C (second compound 0.1 µM, first compound 0.003 µM) of the same compound?
Answer: 71.8%

Question: And the viability, T/C (second compound 0.1 µM, first compound 0.00949 µM)?
Answer: 62.8%

Question: What about the viability, T/C (second compound 0.1 µM, first compound 0.03 µM) of the same compound?
Answer: 60.1%

Question: And the viability, T/C (second compound 0.1 µM, first compound 0.0949 µM)?
Answer: 57.1%

Question: And the viability, T/C (second compound 0.1 µM, first compound 0.3 µM)?
Answer: 44.8%

Question: And the viability, T/C (second compound 0.316 µM, first compound 0.000949 µM)?
Answer: 54.5%

Question: What about the viability, T/C (second compound 0.316 µM, first compound 0.003 µM) of the same compound?
Answer: 55.5%

Question: And the viability, T/C (second compound 0.316 µM, first compound 0.00949 µM)?
Answer: 46.9%

Question: And the viability, T/C (second compound 0.316 µM, first compound 0.03 µM)?
Answer: 48%

Question: And the viability, T/C (second compound 0.316 µM, first compound 0.0949 µM)?
Answer: 40.5%

Question: And the viability, T/C (second compound 0.316 µM, first compound 0.3 µM)?
Answer: 31.6%

Question: And the viability, T/C (second compound 1 µM, first compound 0.000949 µM)?
Answer: 41.9%

Question: What about the viability, T/C (second compound 1 µM, first compound 0.003 µM) of the same compound?
Answer: 39%

Question: What about the viability, T/C (second compound 1 µM, first compound 0.00949 µM) of the same compound?
Answer: 40.7%

Question: What about the viability, T/C (second compound 1 µM, first compound 0.03 µM) of the same compound?
Answer: 34.4%

Question: What about the viability, T/C (second compound 1 µM, first compound 0.0949 µM) of the same compound?
Answer: 34.2%

Question: What about the viability, T/C (second compound 1 µM, first compound 0.3 µM) of the same compound?
Answer: 26.8%

Question: What about the viability, T/C (second compound 3.16 µM, first compound 0.000949 µM) of the same compound?
Answer: 36.6%

Question: And the viability, T/C (second compound 3.16 µM, first compound 0.003 µM)?
Answer: 43.6%

Question: What about the viability, T/C (second compound 3.16 µM, first compound 0.00949 µM) of the same compound?
Answer: 37.6%

Question: And the viability, T/C (second compound 3.16 µM, first compound 0.03 µM)?
Answer: 34.6%

Question: And the viability, T/C (second compound 3.16 µM, first compound 0.0949 µM)?
Answer: 28.5%

Question: And the viability, T/C (second compound 3.16 µM, first compound 0.3 µM)?
Answer: 29%

Question: And the viability, T/C (second compound 10 µM, first compound 0.000949 µM)?
Answer: 45.3%

Question: And the viability, T/C (second compound 10 µM, first compound 0.003 µM)?
Answer: 39.3%

Question: What about the viability, T/C (second compound 10 µM, first compound 0.00949 µM) of the same compound?
Answer: 38.8%

Question: What about the viability, T/C (second compound 10 µM, first compound 0.03 µM) of the same compound?
Answer: 31.4%

Question: What about the viability, T/C (second compound 10 µM, first compound 0.0949 µM) of the same compound?
Answer: 32.8%

Question: What about the viability, T/C (second compound 10 µM, first compound 0.3 µM) of the same compound?
Answer: 27.7%
